Experiments:
Type in all cases: cell-based
[1] = tested on: phosphorylated Akt protein; assay: Cellular PI3K / Akt pathway assay (phospho-Akt Ser473 sandwich ELISA); settings: Homo sapiens; MCF7 cells, ß-Heregulin (20ng/ml) stimulation, 48h incubation
Description: In order to study the cellular activity of the compounds according to the present invention, an Enzyme Linked Immunosorbent Assay (ELISA)-based assay has been used specific phospho-AKT. The assay is based on a Sandwich ELISA kit (PathScan™ Phospho-Akt1 (Ser473); Cell Signaling, USA; #7160). The ELISA Kit detects endogenous levels of phosphorylated Akt protein. A phospho-Akt (Ser473) antibody (Cell Signaling, USA; #9271) has been coated onto the microwells. After incubation with cell lysates, the coated antibody captures the phosphorylated Akt protein. Following extensive washing, Akt1 monoclonal antibody (Cell Signaling, USA; #2967) is added to detect the captured phospho-Akt1 protein. HRP-linked anti-mouse antibody (HRP: horseradish peroxidase; Cell Signaling, USA; #7076) is then used to recognize the bound detection antibody. HRP substrate (= 3,3',5,5'-tetramethylbenzidine (TMB); Cell Signaling, USA; #7160) is added to develop colour. The magnitude of optical density for this developed color is proportional to the quantity of phosphorylated Akt protein. MCF7 cells (ATCC HTB-22) are seeded into 96 well fate bottom plates at a density of 10000 cells/well. 24 hours after seeding, the cells are serum starved using low-serum medium (IMEM media including 0,1% charcoal treated FCS (FCS: fetal calf serum)). […] To stimulate Akt phosphorylation, ß-Heregulin (20ng/ml ß-HRG) is added in parallel to the compounds. Wells containing unstimulated control cells (no ß-Heregulin stimulation) are incubated with or without the diluted compound. Wells containing untreated control cells (no compound) are filled with medium containing 0.5% v:v DMSO and are or are not stimulated with ß-Heregulin. Cells are harvested and lysed with brief sonification in 1x cell lysis buffer (20mM Tris (pH7.5), 150 mM NaCl, 1 mM ethylene diaminetetraacetate (EDTA), 1 mM ethylene glycolbis(2-aminoethyl)-N,N,N',N'-tetraacetic acid (EGTA), 1vol% Triton X-100, 2.5mM sodium pyrophosphate, 1 mM β-glycerolphosphate, 1 mM Na3VO4, 1µg/ml leupeptin). The lysate is centrifuged for 10 min. at 4°C and the supernatant is transferred to a new tube. 100 µl of sample diluent (0.1vol% Tween-20, 0.1vol% sodium azide in phosphate buffered saline (PBS)) are added to a microcentrifuge tube and 100 µl of cell lysate are transferred into the tube and vortexed. 100 µl of each diluted cell lysate are added to the appropriate ELISA well, and incubated overnight at 4°C. The plates are washed 4 times with 1x wash buffer (1vol% tween-20, 0.33vol% thymol, in PBS). Next 100 µl of detection antibody (Akt1 (2H10) monoclonal detection antibody; Cell Signaling, USA; #2967) are added to each well and incubation continued for 1h at 37°C. The washing procedure is repeated between each step. 100µl of secondary antibody (anti-mouse IgG HRP-linked antibody; Cell Signaling, USA; #7076) are added to each well and incubated for 30 min. at 37°C. Than, 100µl of TMB substrate (0.05% 3,3',5,5' tetramethylbenzidine, 0.1 % hydrogen peroxide, complex polypeptides in a buffered solution; Cell Signaling, USA; #7160) are added to each well and incubated for 30 min. at 25°C. Finally 100 µl of STOP solution (0.05vol% α and β unsaturated carbonyl compound) are added to each well and the plate are shaked gently. The absorbance is measured at λ =450 nm (Wallac Victor2; Perkin Elmer, USA) within 30 min. after adding the STOP solution. The analysis of the data is performed using a statistical program (Excel; Microsoft, USA). Preferred compounds show an inhibitory activity towards Akt phosphorylation below 10µM.

phosphorylated GSK3 = assay: Cellular pGSK3 assay (phospho-GSK3 Ser9 sandwich ELISA); settings: Homo sapiens; MCF7 cells, 48h incubation, IC50 of pGSK3 inhibition
Description: In order to study the cellular activity of the compounds according to the present invention, an ELISA-based assay has been established for the phosphorylated protein glycogen synthetase kinase 3 (GSK3). The assay is based on a solid phase sandwich ELISA that detects endogenous levels of phosphorylated GSK3 using a phospho-GSK3 (Ser9) specific antibody (BioSource International, Inc.; Catalog #KHO0461). After incubation with cell lysates, the coated antibody captures the phosphorylated GSK3 protein. Following extensive washing, GSK3 polyclonal antibody is added to detect the captured phospho-GSK3 protein. Secondary antibody (anti-rabbit IgG-HRP) is then used to recognize the bound detection antibody. After the second incubation and washing to remove all the excess anti-rabbit IgG-HRP, a substrate solution is added, which is acted upon by the bound enzyme to produce color. The intensity of this colored product is directly proportional to the concentration of GSK-3β [pS9] present in the original specimen. MCF7 cells (ATCC HTB-22) were seeded into 96 well fate bottom plates at a density of 10000 cells/well. After 24 h 1 µl each of the compound dilutions (test compounds were dissolved as 10 mM solutions in dimethylsulfoxide (DMSO) and subsequently diluted) were added into each well of the 96 well plates and incubated for 48h at 37°C in a humidified athmosphere containing 5% CO2. Cells were harvested and lysed in cell extraction buffer (10 mM Tris, pH 7.4, 100 mM NaCl, 1 mM EDTA, 1 mM EGTA, 1 mM NaF, 20 mM Na4P2O7, 2 mM Na3VO4, 1% Triton X-100, 10vol% glycerol, 0.1vol% SDS, 0.5vol% deoxycholate, 1 mM phenylmethylsulfonylfluorid (PMSF)). The lysate were centrifuged for 10 min. at 4°C and the supernatant were transferred to a new tube. 50 µl of sample diluent (standard diluent buffer, Biosource) were added and 100 µl of cell lysate transferred into the tube and vortexed. 100 µl of each diluted cell lysate were added to the appropriate ELISA well plate and incubated for 3h at room temperature. The plates were washed 4 times with 1x wash buffer (Biosource). 50 µl of detection antibody (GSK3 (Ser9) detection antibody; BioSource) were added to each well and incubated for 30 min. at room temperature. The washing procedure was repeated between each step. 100µl of HRP-linked secondary antibody (anti-mouse IgG HRP-linked antibody) were added to each well and incubated for 30 min. at room temperature. 100µl of TMB substrate (0.05vol% 3,3',5,5' tetramethylbenzidine, 0.1vol% hydrogen peroxide, complex polypeptides in a buffered solution; Biosource) were added to each well and incubated for 30 min. at room temperature. Finally 100 µl of Stop solution (0.05vol% α and β unsaturated carbonyl compound) were added to each well and the plate were shaked gently for a few seconds. The absorbance was measured at λ = 450 nm (Wallac Victor2; Perkin Elmer, USA) within 30 min. after adding the stop solution. The analysis of the data was performed using a statistical program (Excel; Microsoft, USA) and the IC50 of pGSK3 inhibition was determined.

OvCAR3 cells = assay: Cellular proliferation / Cytotoxicity assay (Alamar Blue / Resazurin cell viability); settings: Homo sapiens, OVCAR-3, 48h incubation, read-out: Anti-proliferative / Cytotoxic activity (OvCAR3 cells)
Description: Wells containing untreated control cells were filled with 200 µl DMEM (Dulbecco's Modified Eagle Medium) containing 0.5vol% v:v DMSO. The cells are then incubated with the substances for 48h at 37°C in a humidified atmosphere containing 5vol% CO2. To determine the viability of the cells, 20 µl of a Resazurin solution (90mg / I) are added. […] Viabilities are expressed as % values.

| IC50 [1] | IC50 (phosphorylated GSK3) | SMILES | IC50 (OvCAR3 cells) |
| --- | --- | --- | --- |
| < 1000 nM | 1000 to 10000 nM | c1ccc(-c2c(-c3ccc(CN4CCC(c5n[nH]c(-c6ccccn6)n5)CC4)cc3)nc3ncccn23)cc1 [Example 1, 3-phenyl-2-(4-{[4-(5-pyridin-2-yl-1,2,4-triazol-3-yl)piperidin-1-yl]methyl}phenyl)imidazo[1,2-a]pyrimidine] | < 10000 nM |
| < 1000 nM | 1000 to 10000 nM | c1ccc(-c2c(-c3ccc(CN4CCC(c5n[nH]c(-c6ccccn6)n5)CC4)cc3)nc3ccccn23)cc1 [Example 2, 3-phenyl-2-(4-{[4-(5-pyridin-2-yl-1H-1,2,4-triazol-3-yl)piperidin-1-yl]methyl}phenyl)imidazo[1,2-a]pyridine] | < 10000 nM |
| < 1000 nM | < 1000 nM | c1ccc(-c2c(-c3ccc(CN4CCC(c5n[nH]c(-c6ccccn6)n5)CC4)cc3)nc3nccnn23)cc1 [Example 3, 7-phenyl-6-(4-{[4-(5-pyridin-2-yl-1H-1,2,4-triazol-3-yl)piperidin-1-yl]methyl}phenyl)imidazo[1,2-b][1,2,4]triazine] | < 10000 nM |
| – | 1000 to 10000 nM | c1ccc(-c2c(-c3ccc(CN4CCC(c5nc(-c6cnccn6)no5)CC4)cc3)nc3ncccn23)cc1 [Example 4, 3-phenyl-2-(4-{[4-(3-pyrazin-2-yl-1,2,4-oxadiazol-5-yl)piperidin-1-yl]methyl}phenyl)imidazo[1,2-a]pyrimidine] | > 10000 nM |
| < 1000 nM | < 1000 nM | N#Cc1cccn2c(-c3ccccc3)c(-c3ccc(CN4CCC(c5n[nH]c(-c6ccccn6)n5)CC4)cc3)nc12 [Example 5, 3-phenyl-2-(4-{[4-(5-pyridin-2-yl-1,2,4-triazol-3-yl)piperidin-1-yl]methyl}phenyl)imidazo[1,2-a]pyridine-8-carbonitrile] | – |
| < 1000 nM | 1000 to 10000 nM | Brc1ccc2nc(-c3ccc(CN4CCC(c5n[nH]c(-c6ccccn6)n5)CC4)cc3)c(-c3ccccc3)n2c1 [Example 6, 6-bromo-3-phenyl-2-(4-{[4-(5-pyridin-2-yl-1,2,4-triazol-3-yl)piperidin-1-yl]methyl}phenyl)imidazo[1,2-a]pyridine] | < 10000 nM |
| – | 1000 to 10000 nM | Clc1nccn2c(-c3ccccc3)c(-c3ccc(CN4CCC(c5n[nH]c(-c6ccccn6)n5)CC4)cc3)nc12 [Example 26, 8-chloro-3-phenyl-2-(4-{[4-(5-pyridin-2-yl-1,2,4-triazol-3-yl)piperidin-1-yl]methyl}phenyl)imidazo[1,2-a]pyrazine] | < 10000 nM |
| – | 1000 to 10000 nM | FC(F)(F)c1ccn2c(-c3ccccc3)c(-c3ccc(CN4CCC(c5n[nH]c(-c6ccccn6)n5)CC4)cc3)nc2n1 [Example 28, 3-phenyl-2-(4-{[4-(5-pyridin-2-yl-1,2,4-triazol-3-yl)piperidin-1-yl]methyl}phenyl)-7-(trifluoromethyl)imidazo[1,2-a]pyrimidine] | < 10000 nM |
| < 1000 nM | < 1000 nM | Clc1ccc2nc(-c3ccc(CN4CCC(c5n[nH]c(-c6ccccn6)n5)CC4)cc3)c(-c3ccccc3)n2n1 [Example 31, 6-chloro-3-phenyl-2-(4-{[4-(5-pyridin-2-yl-1,2,4-triazol-3-yl)piperidin-1-yl]methyl}phenyl)imidazo[1,2-b]pyridazine] | – |
| – | 1000 to 10000 nM | c1ccc(-c2nc(C3CCN(Cc4ccc(-c5nc6ncccn6c5-c5cccs5)cc4)CC3)n[nH]2)nc1 [Example 35, 2-(4-{[4-(5-pyridin-2-yl-1,2,4-triazol-3-yl)piperidin-1-yl]methyl}phenyl)-3-(2-thienyl)imidazo[1,2-a]pyrimidine] | < 10000 nM |
| – | 1000 to 10000 nM | c1ccc(-c2nc(C3CCN(Cc4ccc(-c5nc6ncccn6c5-c5ccncc5)cc4)CC3)n[nH]2)nc1 [Example 36, 3-pyridin-4-yl-2-(4-{[4-(5-pyridin-2-yl-1,2,4-triazol-3-yl)piperidin-1-yl]methyl}phenyl)imidazo[1,2-a]pyrimidine] | > 10000 nM |
| < 1000 nM | < 1000 nM | NC(=O)c1cccn2c(-c3ccccc3)c(-c3ccc(CN4CCC(c5n[nH]c(-c6ccccn6)n5)CC4)cc3)nc12 [Example 40, 3-phenyl-2-(4-{[4-(5-pyridin-2-yl-1,2,4-triazol-3-yl)piperidin-1-yl]methyl}phenyl)imidazo[1,2-a]pyridine-8-carboxamide] | – |
| < 1000 nM | – | Fc1ccccc1-c1c(-c2ccc(CN3CCC(c4n[nH]c(-c5ccccn5)n4)CC3)cc2)nc2ncccn12 [Example 41, 3-(2-fluorophenyl)-2-(4-{[4-(5-pyridin-2-yl-1,2,4-triazol-3-yl)piperidin-1-yl]methyl}phenyl)imidazo[1,2-a]pyrimidine] | – |
| < 1000 nM | – | c1ccc(-c2nc(C3CCN(Cc4ccc(-c5nc6sccn6c5-c5nccs5)cc4)CC3)n[nH]2)nc1 [Example 42, 6-(4-{[4-(5-pyridin-2-yl-1,2,4-triazol-3-yl)piperidin-1-yl]methyl}phenyl)-5-(1,3-thiazol-2-yl)imidazo[2,1-b][1,3]thiazole] | – |
